How the values were obtained:
Settings in all cases: incubation time: 72 h
MCF-10A = experiment: drug sensitivity score (DSS), CellTiter-Glo (DSS (AUC-based score)); higher = stronger drug effect (viability inhibition or cytotoxicity); extreme values may be limits of the assay
In short: (§1)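 Breast cancer cell lines (20 µl suspension) were seeded into 384-well plates holding compound at 5 concentrations in 10-fold steps over a compound-specific 10,000-fold range, then incubated 72 h. CellTox Green fluorescence (485/520 nm) was read first, then CellTiter-Glo luminescence after 10 min at room temperature. Each plate was normalised to 0.1 % DMSO and a positive kill control. The drug sensitivity score was calculated from the area under the fitted dose-response curve.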

HCC1599 [1] = experiment: as above
In short: as §1

HCC1143 [2] = experiment: as above
In short: as §1

DU-4475 = experiment: as above
In short: as §1

MDA-MB-436 [3] = experiment: as above
In short: as §1

CAL-148 = experiment: as above
In short: as §1

HCC1937 = experiment: as above
In short: as §1

MDA-MB-468 [4] = experiment: as above
In short: as §1

BT-474 = experiment: as above
In short: as §1

MDA-MB-231 [5] = experiment: as above
In short: as §1

MDA-MB-453 [6] = experiment: as above
In short: as §1

Hs578T = experiment: as above
In short: as §1

MFM-223 = experiment: as above
In short: as §1

HDQ-P1 = experiment: as above
In short: as §1

CAL-85-1 = experiment: as above
In short: as §1

BT-549 = experiment: as above
In short: as §1

HCC1599 [7] = experiment: normalised viability (% of control), CellTiter-Blue; higher = more viable cells (about 100 = DMSO control)
In short: (§2)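 Breast cancer cell lines in 20 µl suspension were seeded onto 384-well plates pre-loaded with compound dissolved in 5 µl medium, then incubated 72 h. CellTiter-Blue reagent (2.5 µl) was added for 2 h at 37 °C and fluorescence read at 560/590 nm. Each plate was normalised to vehicle (100) and a positive kill control (0), with Z'-factor quality control. The value is normalised viability at one listed concentration of the series.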

HCC1143 [8] = experiment: as above
In short: as §2

MDA-MB-436 [9] = experiment: as above
In short: as §2

SK-BR-3 = experiment: as above
In short: as §2

MDA-MB-468 [10] = experiment: as above
In short: as §2

CAL-120 = experiment: as above
In short: as §2

MDA-MB-231 [11] = experiment: as above
In short: as §2

MDA-MB-453 [12] = experiment: as above
In short: as §2

Compound	drug sensitivity score (MCF-10A)	drug sensitivity score (HCC1599 [1])	drug sensitivity score (HCC1143 [2])	drug sensitivity score (DU-4475)	drug sensitivity score (MDA-MB-436 [3])	drug sensitivity score (CAL-148)	drug sensitivity score (HCC1937)	drug sensitivity score (MDA-MB-468 [4])	drug sensitivity score (BT-474)	drug sensitivity score (MDA-MB-231 [5])	drug sensitivity score (MDA-MB-453 [6])	drug sensitivity score (Hs578T)	drug sensitivity score (MFM-223)	drug sensitivity score (HDQ-P1)	drug sensitivity score (CAL-85-1)	drug sensitivity score (BT-549)	normalised viability (HCC1599 [7]; 10 nM)	normalised viability (HCC1599 [7]; 1000 nM)	normalised viability (HCC1599 [7]; 10000 nM)	normalised viability (HCC1143 [8]; 10 nM)	normalised viability (HCC1143 [8]; 1000 nM)	normalised viability (HCC1143 [8]; 10000 nM)	normalised viability (MDA-MB-436 [9]; 10 nM)	normalised viability (MDA-MB-436 [9]; 1000 nM)	normalised viability (MDA-MB-436 [9]; 10000 nM)	normalised viability (SK-BR-3; 10 nM)	normalised viability (SK-BR-3; 1000 nM)	normalised viability (SK-BR-3; 10000 nM)	normalised viability (MDA-MB-468 [10]; 10 nM)	normalised viability (MDA-MB-468 [10]; 1000 nM)	normalised viability (MDA-MB-468 [10]; 10000 nM)	normalised viability (CAL-120; 10 nM)	normalised viability (CAL-120; 1000 nM)	normalised viability (CAL-120; 10000 nM)	normalised viability (MDA-MB-231 [11]; 10 nM)	normalised viability (MDA-MB-231 [11]; 1000 nM)	normalised viability (MDA-MB-231 [11]; 10000 nM)	normalised viability (MDA-MB-453 [12]; 3 nM)	normalised viability (MDA-MB-453 [12]; 30 nM)	normalised viability (MDA-MB-453 [12]; 100 nM)
Nc1ccccc1NC(=O)c1ccc(CNC(=O)OCc2cccnc2)cc1 [Entinostat]	0	4.34	3.36	4.63	2.51	4.83	0	4.34	2.59	2.59	6.08	4.83	3.34	2.05	1.24	8.43	122%	86.6%	19.6%	84.5%	89.6%	31.2%	115%	96%	52.8%	108%	45.2%	2.8%	102%	79.8%	22.9%	90.1%	57.9%	30.8%	99.2%	78.7%	37.7%	132%	130%	110%
CCc1cncnc1N1CCN(Cc2nc3ccc(C(F)(F)F)cc3[nH]2)CC1	0	0	0	0	0	0	0	2.68	0.467	0	1.08	0	0	0	0	1.94	77.2%	83%	90.2%	103%	106%	109%	107%	106%	91.7%	105%	104%	117%	107%	108%	103%	104%	135%	132%	96.9%	98.2%	106%	101%	110%	103%
C=CC(=O)Nc1cc2c(Nc3ccc(F)c(Cl)c3)ncnc2cc1OCCCN1CCOCC1 [Canertinib]	22	3.8	3.9	0.331	4.2	5.7	5.34	10.6	6.57	8.75	6.35	2.99	3.18	11.8	13.6	7.57	96.2%	106%	43.9%	74.9%	89%	22.6%	139%	43.5%	10.5%	71.9%	19.9%	12.9%	89.2%	52.9%	1.77%	79.9%	72.5%	6.63%	91.4%	70.6%	6.79%	105%	86.9%	72.6%
O=C(Cc1ccc(-c2ccc(OCCN3CCOCC3)cc2)cn1)NCc1ccccc1 [KX2-391]	8.52	23.8	14.7	15.2	21	16.9	8.24	20	12.8	14.1	9	23.2	15.6	8.26	18.5	16.3	95.6%	62.3%	58.7%	79.3%	32.3%	39.5%	98.3%	56.6%	39.2%	102%	19.9%	19.1%	104%	38.9%	51.8%	93.5%	21.3%	21.3%	98.1%	18.1%	16.3%	114%	72.6%	25%
O=C(O)C(=O)O.[NH-][C@@H]1CCCC[C@H]1[NH-].[Pt+2] [Oxaliplatin]	0	0	0	0	0	0	0	0	0	0	0	0	0	0	0	0	87.3%	79.6%	70%	82.2%	94.2%	44%	111%	88.6%	56.5%	98.1%	122%	47.5%	98.7%	97.7%	56.5%	87.1%	93.2%	52.2%	92.2%	83.5%	48.9%	119%	101%	113%

Source: the supplement of paper PMC4862054
